From patent publication US11779613B2, “Compositions comprising a bacterial strain of the genus Megasphera and uses thereof” (CJ BIOSCIENCE, INC., priority 2017, dated 2023)

Legend:
histone deacetylase [1] = experiment: Histone deacetylase activity in HT-29 whole cells; format: cell-based; details: for total HDAC activity, pure substances: different concentrations, whole HT-29 cells and HT-29 cell lysate, FIG. 16B
Protocol: The cell line HT-29 was used because histone deacetylase is present.
Cell free supernatants of stationary phase bacterial cultures were isolated by centrifugation and filtering in a 0.22 uM filter. HT-29 cells were used 3 days' post confluence and stepped down in 1 mL DTS 24 hours prior to commencement of the experiment. The HT-29 cells were challenged with 10% cell free supernatant diluted in DTS and was is left to incubate for 48 hours. […] extraction kit and samples were snap frozen prior to HDAC activity measurement. HDAC activity was assessed fluorometrically using the Sigma Aldrich (UK) kit.
(§1) Pure cultures of bacteria were grown anaerobically in YCFA broth until they reached their stationary growth phase. Cultures were centrifuged at 5,000×g for 5 minutes and the cell-free supernatant (CFS) was filtered using a […] (Millipore, UK). 1 mL aliquots of the CFS were stored at −80° C. until use. Sodium butyrate, hexanoic and valeric acid were obtained from Sigma Aldrich (UK) and suspensions were prepared in YCFA broth.
(§2) To investigate which metabolites were responsible for the strain-induced HDAC inhibition, different concentrations of hexanoic acid, valeric acid and sodium butyrate were measured for their HDAC inhibition on whole HT-29 cells and on HT-29 cell lysate.

[2] = test system: SH-SY5Y neuroblastoma cells; experiment: Cell viability / neuroprotection of SH-SY5Y neuroblastoma cells with or without MPP (CCK-8); format: cell-based, human; details: compared to YCFA-MPP+ treated sample, FIG. 15
Protocol: SH-SY5Y neuroblastoma cells were purchased from ECCACC (Cat. no: 94030304) and were grown in MEM (Sigma Aldrich, cat n. M2279) supplemented with Nutrient Mixture F-12 Ham (Sigma Aldrich, cat n. N4888).
Once grown the SH-SY5Y neuroblastoma cells were plated on 96-well plate at 11,000 cells/well and incubated for 2 days. The cells were then transferred to differentiation medium (which contains FBS at 1%) and 10 uM retinoic acid (Sigma Aldrich, cat. n. R2625-100MG). Differentiation medium was replaced every other day and cells were harvested at 7 day of differentiation. Cells were pre-treated with or without MPP (Sigma Aldrich, cat. n. D048-1G) for 8 hours. Subsequently, cells were treated with 10% bacterial supernatant and incubated overnight. Cell viability was measured by using CCK-8 reagent (Sigma Aldrich, Cell Counting Kit—8, cat. n. 96992-3000TESTS-F) and read at 450 nm wavelength.
RA-differentiated SHSY-5Y cells were treated with MPP+, the active metabolite of MPTP, a chemical widely used to mimic in vitro and in vivo some of the features of PD pathology. Cell viability was measured as the rate of mitochondria respiration (FIG. 15).

histone deacetylase [3] = experiment: Histone deacetylase activity in HT-29 cell lysate; format: biochemical; details: FIG. 16A/16B
Protocol: as §1, §2

Row | Structure (SMILES) | total HDAC activity, pure substances (histone deacetylase [1]) | total HDAC activity, pure substances (histone deacetylase [1]; listed as Valeric acid) | protection from MPP+ [2] | HDAC inhibition, HT29 whole cells (histone deacetylase [1]; FIG. 16A/16B) | HDAC inhibition, HT29 cell lysates (histone deacetylase [3])
1 | CCCCC(=O)O [valeric acid] | significant HDAC inhibition | inhibited total HDAC activity |  |  | 
2 | CCCCCC(=O)O [hexanoic acid] | did not show significant inhibitory activity |  |  |  | 
3 | O=c1c(O)c(-c2ccc(O)c(O)c2)oc2cc(O)cc(O)c12 [quercetin, Quercetin] |  |  | about 20% |  | 
4 | CCCC(=O)[O-].[Na+] [sodium butyrate, Sodium butyrate] | significant HDAC inhibition |  |  | significant (P<0.05) inhibition | significant (P<0.05) inhibition
